Consider 26 compounds from PubChem BioAssay AID256 (DTP/NCI, 2004).

Structures are written as SMILES. Where “and” joins values, the source holds several entries; their conditions need not be identical. Equal entries are not always repeated. Inconclusive results and toxic doses are left out.

This test deals with CD2F1 mice, L1210 leukemia ip, survival T/C. The test is described as follows: NCI In Vivo Anticancer Drug Screen. Data for tumor model L1210 Leukemia (intraperitoneal) in CD2F1 (CDF1) mice. The conditions noted are these: higher = longer survival. The essentials:
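Transplantable tumor in mice; compound-treated vs vehicle-treated groups. Read-out = treated/control ratio of the measured endpoint.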

The mark [1] stands for this setting: endpoint: mean survival time, dose: 100.0 mg/kg/injection, schedule: Q04DX003 (ip), vehicle: saline sonified.
[2] abbreviates: endpoint: mean survival time, dose: 100.0 mg/kg/injection, schedule: Q04DX003 (ip), vehicle: saline with Tween-80.
The mark [3] stands for this setting: endpoint: mean survival time, dose: 200.0 mg/kg/injection, schedule: Q04DX003 (ip), vehicle: saline with Tween-80.
Setting [4] is: endpoint: mean survival time, dose: 400.0 mg/kg/injection, schedule: Q04DX003 (ip), vehicle: saline with Tween-80.
[5] abbreviates: endpoint: mean survival time, dose: 25.0 mg/kg/injection, schedule: Q01DX009 (ip), vehicle: saline with Tween-80.
Where [6] appears, read: endpoint: mean survival time, dose: 100.0 mg/kg/injection, schedule: Q04DX002 (ip), vehicle: saline with Tween-80.
Setting [7] is: endpoint: mean survival time, dose: 200.0 mg/kg/injection, schedule: Q04DX002 (ip), vehicle: saline with Tween-80.
The mark [8] stands for this setting: endpoint: mean survival time, dose: 50.0 mg/kg/injection, schedule: Q01DX009 (ip), vehicle: saline with Tween-80.
[9] abbreviates: endpoint: mean survival time, dose: 100.0 mg/kg/injection, schedule: Q01DX009 (ip), vehicle: saline with Tween-80.
[10] abbreviates: endpoint: mean survival time, dose: 50.0 mg/kg/injection, schedule: Q01DX009 (ip), vehicle: saline.
[11] abbreviates: endpoint: mean survival time, dose: 100.0 mg/kg/injection, schedule: Q01DX009 (ip), vehicle: saline.
The mark [12] stands for this setting: endpoint: mean survival time, dose: 12.5 mg/kg/injection, schedule: Q01DX005 (ip), vehicle: water.
Setting [13] is: endpoint: mean survival time, dose: 25.0 mg/kg/injection, schedule: Q01DX005 (ip), vehicle: water.
The mark [14] stands for this setting: endpoint: mean survival time, dose: 50.0 mg/kg/injection, schedule: Q01DX005 (ip), vehicle: water.
Setting [15] is: endpoint: mean survival time, dose: 100.0 mg/kg/injection, schedule: Q01DX005 (ip), vehicle: water.
The mark [16] stands for this setting: endpoint: mean survival time, dose: 200.0 mg/kg/injection, schedule: Q01DX005 (ip), vehicle: water.

For the compound `C=C(Br)C(=O)O`, the T/C runs as follows: (endpoint: mean survival time, dose: 100.0 mg/kg/injection, schedule: Q01DX001 (ip), vehicle: saline) 93 % of control; (endpoint: mean survival time, dose: 200.0 mg/kg/injection, schedule: Q01DX001 (ip), vehicle: saline) 98 % of control.
For the compound `C=CCCC(=O)CCCC(=O)O[C@@H]1[C@@H]2[C@H](CC1(C)C)[C@H](O)[C@@]13O[C@@H]1[C@H](O)[C@@]1(CO1)[C@@]23C`, the T/C by setting is: (endpoint: mean survival time, dose: 6.2 micrograms/kg/injection, schedule: Q01DX009 (ip), vehicle: saline) 95 % of control; (endpoint: mean survival time, dose: 12.5 micrograms/kg/injection, schedule: Q01DX009 (ip), vehicle: saline) 89 % of control; (endpoint: mean survival time, dose: 25.0 micrograms/kg/injection, schedule: Q01DX009 (ip), vehicle: saline) 95 % of control; (endpoint: mean survival time, dose: 50.0 micrograms/kg/injection, schedule: Q01DX009 (ip), vehicle: saline) 97 % of control; (endpoint: median survival time, dose: 25.0 micrograms/kg/injection, schedule: Q01DX009 (ip), vehicle: Klucel (hydroxypropylcellulose) (HPC)) 101 % of control; (endpoint: median survival time, dose: 50.0 micrograms/kg/injection, schedule: Q01DX009 (ip), vehicle: Klucel (hydroxypropylcellulose) (HPC)) 101 % of control. In addition, the T/C was 100 % of control (endpoint: median survival time, dose: 100.0 micrograms/kg/injection, schedule: Q01DX009 (ip), vehicle: Klucel (hydroxypropylcellulose) (HPC)); 94 % of control (endpoint: median survival time, dose: 200.0 micrograms/kg/injection, schedule: Q01DX009 (ip), vehicle: Klucel (hydroxypropylcellulose) (HPC)); 97 % of control (endpoint: median survival time, dose: 400.0 micrograms/kg/injection, schedule: Q01DX009 (ip), vehicle: Klucel (hydroxypropylcellulose) (HPC)).
Take `CC(C)OC(=O)Nc1ccccc1Cl`: the T/C was 92 % of control under setting [1]; 94 % of control (endpoint: mean survival time, dose: 200.0 mg/kg/injection, schedule: Q04DX003 (ip), vehicle: saline sonified); 94 % of control (endpoint: mean survival time, dose: 400.0 mg/kg/injection, schedule: Q04DX003 (ip), vehicle: saline sonified).
As for `CC[As](=O)(O)c1ccc([N+](=O)[O-])cc1`, the T/C runs as follows: (endpoint: mean survival time, dose: 25.0 mg/kg/injection, schedule: Q01DX001 (ip), vehicle: saline with Tween-80) 98 % of control; (endpoint: mean survival time, dose: 50.0 mg/kg/injection, schedule: Q01DX001 (ip), vehicle: saline with Tween-80) 96 % of control.
Regarding `CCNC(=S)N(Cc1ccccc1)Cc1ccccc1`, the T/C by setting is: (endpoint: mean survival time, dose: 50.0 mg/kg/injection, schedule: Q04DX003 (ip), vehicle: saline with Tween-80) 103 % of control; under setting [2], 89 % of control and 98 % of control; under setting [3], 100 % of control; under setting [4], 87 % of control.
For the compound `CN1CCCN(C)C1c1cc(Cl)ccc1O`, the T/C by setting is: (endpoint: mean survival time, dose: 6.25 mg/kg/injection, schedule: Q01DX009 (ip), vehicle: saline with Tween-80) 98 % of control; (endpoint: mean survival time, dose: 12.5 mg/kg/injection, schedule: Q01DX009 (ip), vehicle: saline with Tween-80) 98 % of control; under setting [5], 98 % of control; under setting [2], 103 % of control; under setting [3], 121 % of control; under setting [4], 95 % of control.
As to `CN1C(=O)C(C(O)(c2ccccc2)c2ccccc2)C1c1ccccc1` (centres undefined), the T/C is 96 % of control (endpoint: mean survival time, dose: 50.0 mg/kg/injection, schedule: Q04DX002 (ip), vehicle: saline with Tween-80); 96 % of control under setting [6]; 96 % of control under setting [7].
On to `Nn1cnnc1SCc1ccccc1`, for which the T/C by setting is: (endpoint: mean survival time, dose: 100.0 mg/kg/injection, schedule: Q04DX003 (ip), vehicle: other) 100 % of control; (endpoint: mean survival time, dose: 200.0 mg/kg/injection, schedule: Q04DX003 (ip), vehicle: other) 97 % of control; (endpoint: mean survival time, dose: 400.0 mg/kg/injection, schedule: Q04DX003 (ip), vehicle: other) 105 % of control.
`Nc1ccc(Nc2ccccc2C(=O)O)cc1`: the T/C is, setting by setting: under setting [8], 95 % of control; under setting [9], 103 % of control; under setting [2], 105 % of control; under setting [3], 97 % of control.
`CCOC(=O)N1CC2CCC(C1)N2C`: the T/C (endpoint: mean survival time, dose: 100.0 mg/kg/injection, schedule: Q04DX003 (ip), vehicle: saline) was 93 % of control.
Take `O=C(C=C(C(F)(F)Cl)C(F)(F)Cl)c1cccs1`: the T/C runs as follows: (endpoint: mean survival time, dose: 5.0 mg/kg/injection, schedule: Q04DX003 (ip), vehicle: saline) 98 % of control; (endpoint: mean survival time, dose: 10.0 mg/kg/injection, schedule: Q04DX003 (ip), vehicle: saline) 104 % of control; (endpoint: mean survival time, dose: 20.0 mg/kg/injection, schedule: Q04DX003 (ip), vehicle: saline) 103 % of control.
With `CCN(CC)CCN1CC2C3C=CC(C3)C2C1` (centres undefined), the T/C under setting [5] was 97 % of control; the T/C under setting [8] was 100 % of control; the T/C under setting [9] is 102 % of control and 104 % of control.
Regarding `O=C(O)Cc1ccccc1C(=O)O.[Pb]`, the T/C is, setting by setting: under setting [8], 102 % of control; under setting [9], 102 % of control; under setting [2], 93 % of control; under setting [3], 98 % of control.
With `CN(C)C(=N)N(C)C`, the T/C runs as follows: under setting [5], 98 % of control; under setting [8], 95 % of control; under setting [9], 87 % of control; under setting [1], 101 % of control.
Turning to `CC(C)NCC1CC2c3cccc4[nH]cc(c34)CC2N(C)C1` (centres undefined), the T/C is, setting by setting: (endpoint: median survival time, dose: 25.0 mg/kg/injection, schedule: Q04DX003 (ip), vehicle: saline with Tween-80) 100 % of control; (endpoint: median survival time, dose: 50.0 mg/kg/injection, schedule: Q04DX003 (ip), vehicle: saline with Tween-80) 111 % of control.
For the compound `COc1cc(C(=O)N(C(C)C)C2CCCCC2)cc(OC)c1OC`, the T/C under setting [2] is 104 % of control and the T/C under setting [3] is 96 % of control.
For the compound `CCOS(=O)(=O)CCCCS(=O)(=O)OCC`, the T/C by setting is: (endpoint: mean survival time, dose: 10.0 mg/kg/injection, schedule: Q01DX009 (ip), vehicle: Klucel (hydroxypropylcellulose) (HPC)) 104 % of control; (endpoint: mean survival time, dose: 20.0 mg/kg/injection, schedule: Q01DX009 (ip), vehicle: Klucel (hydroxypropylcellulose) (HPC)) 98 % of control; (endpoint: mean survival time, dose: 40.0 mg/kg/injection, schedule: Q01DX009 (ip), vehicle: Klucel (hydroxypropylcellulose) (HPC)) 107 % of control.
On to `Cc1ccccc1OCC(=O)O`, for which the T/C reads like this: under setting [10], 104 % of control; under setting [11], 101 % of control; (endpoint: mean survival time, dose: 200.0 mg/kg/injection, schedule: Q01DX009 (ip), vehicle: saline) 93 % of control.
As for `[Cl][Pt+2][Cl].[NH-]c1ccc(Cl)cc1[NH-]`, the T/C reads like this: (endpoint: mean survival time, dose: 2.5 mg/kg/injection, schedule: Q01DX009 (ip), vehicle: saline with Tween-80) 113 % of control; (endpoint: mean survival time, dose: 5.0 mg/kg/injection, schedule: Q01DX009 (ip), vehicle: saline with Tween-80) 118 % of control; (endpoint: mean survival time, dose: 40.0 mg/kg/injection, schedule: Q01DX009 (ip), vehicle: saline with Tween-80) 179 % of control.
`O=S(=O)(O)O.[Ga]`: the T/C reads like this: under setting [5], 120 % of control; under setting [8], 117 % of control; under setting [9], 90 % of control.
For the compound `O=C(CCCCl)CC(O)(C(F)(F)Cl)C(F)(F)Cl`, the T/C was 94 % of control (endpoint: mean survival time, dose: 25.0 mg/kg/injection, schedule: Q01DX009 (ip), vehicle: saline); 100 % of control under setting [10]; 94 % of control under setting [11].
For the compound `CC1(C)CC(NC(=O)CSc2ncnc3c2ncn3C2OC(CO)C(O)C2O)CC(C)(C)N1O` (centres undefined), the T/C is 96 % of control under setting [12]; 94 % of control under setting [13]; 94 % of control under setting [14]; 102 % of control under setting [15]; 96 % of control under setting [16].
For `[Cl][Cr][Cl].[NH-]CC[NH-].[NH-]CC[NH-]`, the T/C (endpoint: mean survival time, dose: 100.0 mg/kg/injection, schedule: Q04DX002 (ip), vehicle: saline) is 95 % of control; the T/C (endpoint: mean survival time, dose: 200.0 mg/kg/injection, schedule: Q04DX002 (ip), vehicle: saline) is 95 % of control; the T/C (endpoint: mean survival time, dose: 400.0 mg/kg/injection, schedule: Q04DX002 (ip), vehicle: saline) is 88 % of control.
As to `NC(=O)c1nc(C2OC(CO)C(O)C2O)no1` (centres undefined), the T/C is 98 % of control under setting [12]; 98 % of control under setting [13]; 108 % of control under setting [14]; 98 % of control under setting [15]; 98 % of control under setting [16].
Turning to `CCOc1ccc(/C=C2N=C(/C=C/c3ccccc3)OC\2=O)cc1`, the T/C is, setting by setting: under setting [6], 91 % of control; under setting [7], 95 % of control; (endpoint: mean survival time, dose: 400.0 mg/kg/injection, schedule: Q04DX002 (ip), vehicle: saline with Tween-80) 91 % of control.
Take `O=[N+]([O-])c1cccc(N=C(Nc2cccc([N+](=O)[O-])c2)c2ccccc2)c1`: the T/C under setting [2] is 113 % of control, the T/C under setting [3] was 107 % of control and the T/C under setting [4] is 103 % of control.
